Test results as given in ChEMBL document CHEMBL3217661, “Selective inhibition of E. coli 1-deoxy-D-xylulose-5-phosphate synthase by acetylphosphonates()” (Medchemcomm, 2012).

Legend:
[1] = Inhibition of ThDP-dependent pyruvate dehydrogenase E1 subunit in porcine heart using pyruvate as substrate by spectrophotometric coupled assay; parameters: species or system Sus scrofa
[2] = Inhibition of ThDP-dependent Saccharomyces cerevisiae transketolase by spectrophotometric coupled assay
[3] = Selectivity ratio of Ki for pyruvate dehydrogenase E1 subunit in porcine heart to Ki for Escherichia coli DXP synthase
[4] = biological target: T1, 1-deoxy-D-xylulose-5-phosphate synthase (Escherichia coli (strain K12), UniProt P77488); assay: Competitive inhibition of ThDP-dependent Escherichia coli DXP synthase using pyruvate as substrate assessed as NADPH consumption by spectrophotometric coupled assay
T1 sequence (P77488 whole entry): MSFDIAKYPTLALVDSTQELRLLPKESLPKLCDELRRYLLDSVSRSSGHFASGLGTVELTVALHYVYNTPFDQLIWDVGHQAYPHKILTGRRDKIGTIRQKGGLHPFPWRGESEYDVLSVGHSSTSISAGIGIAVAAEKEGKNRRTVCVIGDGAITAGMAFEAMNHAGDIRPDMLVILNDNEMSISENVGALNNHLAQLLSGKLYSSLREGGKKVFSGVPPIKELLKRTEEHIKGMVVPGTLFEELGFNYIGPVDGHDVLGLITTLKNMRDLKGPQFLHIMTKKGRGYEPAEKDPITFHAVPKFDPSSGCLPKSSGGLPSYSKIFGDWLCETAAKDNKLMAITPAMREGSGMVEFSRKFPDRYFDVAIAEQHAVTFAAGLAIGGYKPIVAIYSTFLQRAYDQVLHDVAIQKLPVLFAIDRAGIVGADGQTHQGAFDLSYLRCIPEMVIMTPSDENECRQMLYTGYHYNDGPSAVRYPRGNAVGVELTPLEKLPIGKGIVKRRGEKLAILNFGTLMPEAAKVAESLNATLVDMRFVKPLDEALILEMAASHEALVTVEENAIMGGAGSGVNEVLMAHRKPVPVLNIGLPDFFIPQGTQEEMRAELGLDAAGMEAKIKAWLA

Structure (SMILES) | Ki [1] | Ki [2] | Ratio Ki [3] | Ki [4]
COP(=O)(O)C(C)=O | 29.9 µM | > 1000 µM | 31 | 0.96 µM
CCOP(=O)(O)C(C)=O | 46.6 µM | > 1000 µM |  | 6.7 µM
CCC(=O)P(=O)(O)OC | > 1000 µM | > 1000 µM |  | 258 µM
CCCC(=O)P(=O)(O)OC | > 1000 µM | > 1000 µM |  | > 1000 µM
CCCCOP(=O)(O)C(C)=O | 335 µM | > 1000 µM | 60 | 5.6 µM
CCCCC(=O)P(=O)(O)OC | > 1000 µM | > 1000 µM |  | > 1000 µM
